Assays:
[1] = molecular target: T1, human mGluR2 (hmGluR2) transiently over-expressed in HEK-293 cells (Homo sapiens, UniProt Q14416); experiment: Human mGluR2 negative allosteric modulator evaluation using Ca++ functional assay (agonist and NAM activity); format: cell-based; details: hmGluR2 in HEK-293 cells, EC80 glutamate, Fluo4AM calcium readout; read-out: mGluR2 negative allosteric modulator activity IC50
T1 construct: expressed in transfected cells; host or cells: HEK-293 cells, transient co-transfection by electroporation
T1 sequence (Q14416 19-872): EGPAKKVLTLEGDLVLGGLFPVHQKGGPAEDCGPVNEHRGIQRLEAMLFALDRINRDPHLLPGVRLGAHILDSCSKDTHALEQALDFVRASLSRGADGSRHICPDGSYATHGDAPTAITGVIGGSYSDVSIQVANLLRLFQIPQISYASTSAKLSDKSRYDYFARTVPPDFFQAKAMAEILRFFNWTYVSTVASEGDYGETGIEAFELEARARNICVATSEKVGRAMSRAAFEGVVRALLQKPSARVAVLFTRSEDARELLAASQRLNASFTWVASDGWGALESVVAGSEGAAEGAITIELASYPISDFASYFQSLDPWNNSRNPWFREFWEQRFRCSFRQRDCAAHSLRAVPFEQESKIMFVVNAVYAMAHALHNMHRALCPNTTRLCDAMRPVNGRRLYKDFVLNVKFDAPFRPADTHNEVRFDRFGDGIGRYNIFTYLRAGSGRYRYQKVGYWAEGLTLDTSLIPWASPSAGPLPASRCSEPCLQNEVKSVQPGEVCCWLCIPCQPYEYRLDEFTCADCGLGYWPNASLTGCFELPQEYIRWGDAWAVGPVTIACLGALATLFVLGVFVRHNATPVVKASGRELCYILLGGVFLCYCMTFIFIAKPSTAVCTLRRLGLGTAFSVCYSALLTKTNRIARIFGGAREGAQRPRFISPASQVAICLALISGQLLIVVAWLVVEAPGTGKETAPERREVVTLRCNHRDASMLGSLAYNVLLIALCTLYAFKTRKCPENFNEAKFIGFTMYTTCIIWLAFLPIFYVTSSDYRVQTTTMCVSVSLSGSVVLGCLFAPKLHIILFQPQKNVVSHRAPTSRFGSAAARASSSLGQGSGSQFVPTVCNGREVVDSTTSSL
Method in brief: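 Compound alone (agonist mode) was followed on the same plate by EC80 glutamate (NAM mode), with fluorescence read 60 s. Eight-point curves, variable-slope fit, duplicate, two independent runs.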

SMILES | melting point | IC50 [1]
Cl.Cn1c(=O)c2ccc(-c3ccc(N)nc3)cc2n2nc(C3CCCCC3)cc12 [Example 74, 8-(6-Amino-pyridin-3-yl)-2-cyclohexyl-4-methyl-4H-pyrazolo[1,5-a]quinazolin-5-one] | 194 to 197 °C | < 1 µM
Cn1c(=O)c2ccc(-c3ccc4nccn4c3)cc2n2nc(-c3ccccc3)cc12 [Example 8, 8-Imidazo[1,2-a]pyridin-6-yl-4-methyl-2-phenyl-4H-pyrazolo[1,5-a]quinazolin-5-one] | > 250 °C | < 1 µM
Cc1ccc(-c2ccc3c(=O)n(C)c4cc(-c5ccnc(C(F)(F)F)c5)nn4c3c2)c(C)n1.Cl [Example 143, 8-(2,6-Dimethyl-pyridin-3-yl)-4-methyl-2-(2-trifluoromethyl-pyridin-4-yl)-4H-pyrazolo[1,5-a]quinazolin-5-one] | > 250 °C | < 1 µM
Cl.Cn1c(=O)c2ccc(-c3ccc(N)nc3)cc2n2nc(-c3ccnc(C(F)(F)F)c3)cc12 [Example 136, 8-(6-Amino-pyridin-3-yl)-4-methyl-2-(2-trifluoromethyl-pyridin-4-yl)-4H-pyrazolo[1,5-a]quinazolin-5-one] | > 250 °C | < 1 µM
Cc1[nH]ncc1-c1ccc2c(=O)n(C)c3cc(C4CCOCC4)nn3c2c1 [Example 92, 4-Methyl-8-(5-methyl-1H-pyrazol-4-yl)-2-(tetrahydro-pyran-4-yl)-4H-pyrazolo[1,5-a]quinazolin-5-one] | 223 to 229 °C | < 1 µM
Cc1n[nH]c(C)c1-c1ccc2c(=O)n(C)c3cc(-c4ccnc(C(F)(F)F)c4)nn3c2c1 [Example 145, 8-(3,5-Dimethyl-1H-pyrazol-4-yl)-4-methyl-2-(2-trifluoromethyl-pyridin-4-yl)-4H-pyrazolo[1,5-a]quinazolin-5-one] | > 250 °C | < 1 µM
Cc1cc(N)ncc1-c1ccc2c(=O)n(C)c3cc(-c4ccccc4)nn3c2c1.Cl [Example 24, 8-(6-Amino-4-methyl-pyridin-3-yl)-4-methyl-2-phenyl-4H-pyrazolo[1,5-a]quinazolin-5-one] | 235 to 240 °C | < 1 µM
CCn1cc(-c2cc3n(C)c(=O)c4ccc(-c5ccc(N)nc5)cc4n3n2)cn1.Cl [Example 131, 8-(6-Amino-pyridin-3-yl)-2-(1-ethyl-1H-pyrazol-4-yl)-4-methyl-4H-pyrazolo[1,5-a]quinazolin-5-one] | 226 to 238 °C | < 1 µM
Cl.Cn1c(=O)c2ccc(-c3ccc(N)nn3)cc2n2nc(-c3ccccc3)cc12 [Example 29, 8-(6-Amino-pyridazin-3-yl)-4-methyl-2-phenyl-4H-pyrazolo[1,5-a]quinazolin-5-one] | > 250 °C | < 1 µM
Cn1cc(-c2cc3n(C)c(=O)c4ccc(-c5ccccc5)cc4n3n2)cn1 [Example 124, 4-Methyl-2-(1-methyl-1H-pyrazol-4-yl)-8-phenyl-4H-pyrazolo[1,5-a]quinazolin-5-one] | 228 to 231 °C | < 1 µM
Cc1cc(-c2cc3n(C)c(=O)c4ccc(-c5c[nH]nc5C(F)(F)F)cc4n3n2)cc(C)n1.Cl [Example 147, 2-(2,6-Dimethyl-pyridin-4-yl)-4-methyl-8-(3-trifluoromethyl-1H-pyrazol-4-yl)-4H-pyrazolo[1,5-a]quinazolin-5-one] | > 250 °C | < 1 µM
CC(C)c1cc2n(C)c(=O)c3ccc(-c4ccc(N)nc4)cc3n2n1.Cl [Example 51, 8-(6-Amino-pyridin-3-yl)-2-isopropyl-4-methyl-4H-pyrazolo[1,5-a]quinazolin-5-one] | 240 to 244 °C | < 1 µM
Cc1cc(-c2ccc3c(=O)n(C)c4cc(C5CCCC5)nn4c3c2)cc(C)n1.Cl [Example 66, 2-Cyclopentyl-8-(2,6-dimethyl-pyridin-4-yl)-4-methyl-4H-pyrazolo[1,5-a]quinazolin-5-one] | > 250 °C | < 1 µM

— patent US9434734B2, “Substituted pyrazoloquinazolinones and pyrroloquinazolinones as allosteric modulators of group II metabotropic glutamate receptors” (Domain Therapeutics, priority 2012, dated 2016)
